Test results taken from patent EP0297946A2, “Cytochalasin purification methods and compositions” (priority 1987, dated 1989).
Where “and” joins values, the source holds several entries; their conditions need not be identical. Equal values may be shown once. Read-outs that look alike come from different tables or passages of the source.

Key:
[1] = tested on: P388 murine leukemia cells (drug-resistant line); assay: cells; assay type: cell-based; conditions: Mus musculus
Method: ICs for cytochalasins and antineoplastic agents were determined by inoculating wells containing cultured cells with dilutions of the desired compound, and the resulting exposed cell viability determined at a fixed timepoint after exposure (i.e., 20 or 48 hours). The concentration of the compound that is found to inhibit 50% of the initial cells cultured is the IC50 of that compound with respect to those cells. The IC90 and IC100s can similarly be determined.
Inhibitory concentrations ("ICs") of ADR, CA, and CB on P388 murine leukemia cells (drug-resistant line) were determined as follows.
Cells (5 X 10⁴) were plated out in 200 uL of RPMI 1640 medium containing 10% calf serum. CB, CA, and ADR were added to wells as follows to determine inhibitory concentration as follows: 8 wells were inoculated with dilutions of CB: 0.00 uM CB, 1.00 uM CB, 2.00 uM CB, 4.00 uM CB, 10.00 uM CB, 20.00 uM, 40.00 uM CB, and 80.00 uM CB. […]
All wells were incubated at 37°C, in 5% CO₂ for 3 hours, after which time the plate was centrifuged at 600 X g for 5 minutes, the drug medium removed and replaced with 200 uL of fresh RPMI 1640 medium, containing 10% calf serum, centrifuged again at 600 X g, and cells refed and incubated for 45 hours at 37°C, in 5% CO₂. After the 45 hour incubation, the cells were analyzed for viability using the MTT reduction assay as described in Alley et al.

[2] = Maximum tolerated single bolus dose (MTD) of CB by vehicle and route of administration; assay type: in vivo, CD2F₁ mice; conditions: for MTD: mouse, in vivo
Method: (§1) The maximum tolerated single bolus dose (MTD) of CB (LD₅₋₁₀) was estimated as a function of vehicle and route of administration, in M109 tumor-bearing, B16F10 tumor-bearing, and normal mice (Table 2). Both CD2F₁ and B6D2F₁ mice were tested. […] In tissue distribution studies of CB in vivo, 50 mg/kg (1000 ug/20 g mouse) was injected intraperitoneally and the distribution determined at time intervals thereafter as explained in Example 13. […] It is cleared from the spleen and pancreas by 12 hours, but persists in liver for 72 hours. Some CB is metabolized within the first few minutes after injection, but the remaining 35% persists in liver for up to 72 hours. Sustained release formulations such as liposomes would maintain active CB in tissues.
The vehicles used in the invention may be selected with regard to the intended route of administration and standard pharmaceutical practice. The preparations can be injected parenterally, for example, intra-arterially or intravenously. The preparations may also be administered via oral, subcutaneous, intraperitoneal, or intramuscular routes. For parenteral administration, they can be used, for example, in the form of a sterile pyrogen-free aqueous solution which may contain other solutes.
For example, in the present studies, 0.85% (wt/v) sterile sodium chloride solution, sterile pyrogen-free CM-cellulose (1%)Tween-20 (2%), 10% Intralipid (Cutter Laboratories), or 48% ethanol/sodium chloride (v/v) solution were used as vehicles. Liposomes can alternatively be used as a vehicle. In such cases, the CB can be entrapped by any of the methods known in the art for forming liposomes, mentioned hereinbelow, and administered by any of the above-named routes of administration.
The MTD of CB suspension in pyrogen-free carboxymethyl cellulose(1%)/Tween -20 (2%) was 100 mg/kg SC, 50 mg/kg IP, and 10 mg/kg IV when administered to CD2F₁ mice. In DMSO, the MTD was 25 mg/kg IP, and less than 100 mg/kg SC, and in 33% ethanol, 10 mg/kg IV. At doses of 100 -150 mg/kg CB administered SC in CMC/Tw to CD2F₁ mice that had sustained challenge 24 hr with M109 tumor cells implanted SC, appearance of measurable tumor nodules were delayed by 66%.
The maximum tolerated dose (MTD) of CB (50 mg/kg CB) by intraperitoneal administration was determined by the following procedure. A solution of CB as isolated by Example 2 was obtained by sonication of the CB in DMSO (to make a 25 mg/kg solution of CB) for 2 minutes in an ultrasonic bath at 80-90 Hz power.
The above procedure was repeated for CB in CM-cellulose/Tween 20 (CMC/Tw) vehicle (0.1 ml administered).
The above procedures were repeated for 25 and 100 mg/kg CB in DMSO, and for 100 mg/kg CB in CMC/Tw.
The maximum tolerated dose (MTD) of CB (150 mg/kg, in CMC/Tw) by subcutaneous administration over the peritoneal wall was determined by the procedure of Example 8.
The maximum tolerated dose (MTD) of CB (5 mg/kg) by intravenous administration was determined by the procedure of Example 7. The CB was suspended in 0.1 ml 95% ethanol/0.85% NaCl (1:2 v/v), heated to 37°C and administered via tail vein within 5 minutes of mixing.
The above procedure was repeated using 0.1 ml CM-Cellulose/Tween 20.
The above procedure was repeated using 10, 20, 40, and 50 mg/kg dose of CB with the CM-Cellulose/Tween 20 vehicle, and 10, 20, and 40 mg/kg CB with EtOH/NaCl.

[3] = Tissue distribution of CB in vivo after IP bolus injection, HPLC analysis of tissue extracts; set-up: species or system mice; conditions: 50 mg/kg IP single bolus
Method: as §1
Livers of mice treated according to Examples 4, 5 and 6 were homogenized with a Brinkman polytron using 5.0 ml of methanol /g tissue. The homogenate was centrifuged at 5000g for 5 minutes. The supernatant was brought to 80% water using HPLC grade water and passed through Sep-Pak C-18 cartridges that had first been conditioned with 5.0 ml methanol, followed by 10.0 ml of distilled water. The cartridges were dried under vacuum and washed with 3.0 ml hexane (HPLC grade), and the CB recovered with 2.0 ml of EtOAc (HPLC grade). The elutes were evaporated under a stream of nitrogen and dissolved in 250 ul tetrohydrofuran (HPLC grade). Samples were filtered through a 0.45 um nylon syringe filter into a 50 ul sample loop. The samples were analyzed by HPLC, using a regular phase silica column, a solvent system of hexane:tetrahydrofuran (60:40), and analyzed at 230 nm. The lower limit of sensitivity was determined to be 1 ug per total extract since 20% was analyzed with a quantitative limit of 0.2 ug.

[4] = tested on: Madison 109 (M109) carcinoma; assay: Madison 109 carcinoma tumor model in mice treated with a single bolus of CB; assay type: in vivo, CD2F₁ mice
Method: For SC tumors, growth was monitored by calculating tumor weight according to the methods of Johnson et al. (1975, Cancer Chemo. Rep., 59(4):697-705). For IP and IV-induced tumors, growth was determined by host survival. Metastases were determined at necropsy by fixation of the organ in Bouins solution according to standard procedure, and metastatic foci counted under a dissecting microscope (see Table 1).
Madison 109 (M109) carcinoma was maintained in Balb/c and CD2F₁ mice by serial passage of 20% tumor brei (approximately 1X10⁶ total cells) in mice every 12 days according to the techniques of Rose (1981, Cancer Treat. Rep., 65:299-312). The CD2F₁ were implanted with 0.2 ml M109 SC ventrally on the abdomen. Tumor brei were prepared by excising the tumor from the passage mouse, removing any necrotic areas, weighing the tumor, mincing it, and suspending the fragments in 0.1 ml 20% (v/v) penicillin/streptomycin (Gibco) and 0.85% (w/v) sterile sodium chloride solution (total 1.0 ml/g tumor), and dispersed by repeated aspiration and expulsion through a syringe. The suspension was then diluted to 20% with 0.85% sterile sodium chloride and 0.2 ml was injected SC. Viability of the tumor suspension was about 20%, as determined by the standard trypan blue exclusion test.
The above procedure was repeated, administering the M109 tumor brei IV 90.1 ml) through the tail vein, or IP (0.2 ml).
Mice (6) were subcutaneously implanted with 1X10⁵ tumor cells as isolated in Example 4 on Day 0, and drug treatment was given on Day 1. CB (100 mg/kg mouse, or 0.2 ml of 10.0 mg/ml CB, per 20 gm mouse), suspended in CMC/Tw was administered to mice.
Lower tumor weight was detected in all the treated groups as compared to controls, although this difference lessened with advancing stage of tumor growth. […] No effect on reducing tumor metastases in the liver or spleen was detected with SC administration of CB.

[5] = tested on: P388 murine leukemia cells (P388/ADR); assay: P388/ADR cells in 24-well plates, 3 hours exposure, Coulter counting after 96 hours; assay type: cell-based; conditions: Mus musculus
Method: P388 murine leukemia cells (P388/ADR) selected for multi-drug resistance to doxorubicin and other natural product anti-tumor agents, provided by the National Institutes of Health, were seeded at 5 X 10⁴ cells/ml in 24-well microtiter plates, 2.0 ml per well, in RPMI 1640 medium with 10% fetal calf serum and 10 uM mercaptoethanol. The cells were allowed to equilibrate and divide overnight at 37°C, in 5% CO₂, then treated in duplicate wells with ADR at 2.5, 5, 10, and 20 uM. Other duplicate wells were treated with CB at 2.5, 5, 7.5, 10, and 20 uM. Duplicate wells also contained the above amounts of ADR and CB, which were added to the cells simultaneously. […] After 3 hours of incubation at 37°C, the cells from each well were transferred to sterile centrifuge tubes, and the wells washed with 2.0 ml of sterile medium to assure full cell transfer. The tubes were centrifuged at 600 x g for 5 minutes, and the drug-medium decanted and discarded. The cells were then resuspended in 2.0 ml of fresh medium and plated into 24-well plates, incubated at 37° C for 96 hours, and cell viability and growth after treatment determined by Coulter counting.

B16F10 tumor = assay: Dose response against B16F10 tumor in mice, CB given peri-tumorally SC; assay type: in vivo
Method: CB (100 mg/kg) administered peri-tumorally delays the tumor appears from Day 7 to Day 18, when treatment is administered on Day 1.

[6] = short-term exposure of about 2 hours; cited from earlier work
[7] = CB on Day 1 or when the nodule was detected

COc1cccc2c1C(=O)c1c(O)c3c(c(O)c1C2=O)C[C@@](O)(C(=O)CO)C[C@@H]3O[C@H]1C[C@H](N)[C@H](O)[C@H](C)O1 [ADR, doxorubicin, reference compound]
IC50 ([1]; 3 hours exposure, viability by MTT after 45 hours, read-out: IC50): 3.5 µM

C=C1C(C)C2C(Cc3ccccc3)NC(=O)C23OC(=O)C=CC(O)CCCC(C)CC=CC3C1O (stereo not drawn) [CB, cytochalasin B]
toxicity in DMSO relative to CM-Cellulose/Tween 20 ([2]; IP administration (Example 8)): approximately twice as toxic | toxicity in DMSO relative to CM-Cellulose/Tween 20 ([2]; SC administration (Example 9)): approximately twice as toxic | MTD ([2]; ip, CB suspension in carboxymethyl cellulose(1%)/Tween-20 (2%), single bolus, CD2F₁ mice): 50 mg/kg | MTD ([2]; ip, in DMSO): 25 mg/kg | MTD ([2]; iv, CB suspension in carboxymethyl cellulose(1%)/Tween-20 (2%), single bolus, CD2F₁ mice): 10 mg/kg | MTD ([2]; iv, in 33% ethanol): 10 mg/kg | MTD ([2]; sc, CB suspension in carboxymethyl cellulose(1%)/Tween-20 (2%), single bolus, CD2F₁ mice): 100 mg/kg | MTD ([2]; sc, in DMSO): < 100 mg/kg | sensitivity to CB of CD2F₁ as compared to B6D2F₁ mice ([2]; single bolus dose): Slightly greater sensitivity | IC50 [1]: 35 to 40 µM | persistence in liver [3]: 72 h | time by which cleared from the spleen and pancreas [3]: ≤ 12 h | tissue distribution [3]: appears at the highest levels in liver, spleen, and pancreas | remaining CB that persists in liver for up to 72 hours ([3]; some CB metabolized within the first few minutes): 35% | lung tumor nodules (metastases) versus vehicle controls ([4]; 100 mg/kg CB SC at the time of tumor detection): fewer lung tumor nodules | delay of appearance of measurable tumor nodules ([4]; 100-150 mg/kg CB SC in CMC/Tw, CD2F₁ mice, 24 hr after SC M109 challenge): 66% | animals tumor-free by Day 50 [4, 7]: 33% | median survival time [4, 7]: increased median survival time | cytotoxic effects (life span) ([4]; IV tumor challenge, 50 mg/kg CB by the IP route): no cytotoxic effects were observed | tumor metastases in the liver or spleen ([4]; SC administration of CB): No effect | tumor growth rate ([4]; SC peri-tumorally on Day 1 or when a measurable nodule was observed (around Day 6)): significant decrease in tumor growth rate | effect on SC tumor ([4]; SC single bolus 24 hours after tumor challenge or when the tumor appeared (about day 6)): delay the appearance of measurable tumor nodules, to slow growth rate of the nodule to inhibit invasion, and to extend life span | IC50 [5]: 35 to 40 µM | day of tumor appearance (B16F10 tumor; CB 100 mg/kg peri-tumorally on Day 1, without treatment Day 7): 18 days | tumor nodule growth rate (B16F10 tumor; CB administered subcutaneously): measurable effect | non-cytotoxic concentration [6]: up to 100 ug/ml and ≤ 200 uM
